Results published in patent publication US9334259B2, “Aryloxyacetamide compound and pesticide” (Nippon Soda Co., Ltd., priority 2012, dated 2016).

Test system: acaricide-resistant adult female Aculops pelekassi
Test: Efficacy test against Aculops pelekassi (mandarin orange leaf)
Assay type: in vivo
Settings: 125 ppm emulsion sprayed
Method: Twenty acaricide-resistant adult female Aculops pelekassi acarus were inoculated onto a mandarin orange leaf placed in a Petri dish. Next, an emulsion was prepared having the formula indicated in the aforementioned Preparation example 2. This emulsion was diluted with water to a compound concentration of 125 ppm after which the diluted liquids were sprayed onto the mandarin orange leaf with a rotary spraying tower. The mandarin orange leaf was then placed in a temperature-controlled room at a temperature of 25° C. and a humidity of 65%. The life and death of the adult insects were investigated 3 days after the spraying. The development from eggs laid to adult was investigated 10 days after the spraying.

CCC(Oc1cc(Br)c(Cl)c(Br)c1)C(=O)NC(C)(C)c1ncccn1 (centres unmarked) [Compound No. 1-14] was tested, and the “insect mortality rate after 3 days” value (3 days after spraying) was at least 90% and the “insect mortality rate after 10 days” value (10 days after spraying) was at least 90%.
